Key:
[1] = Antiinflammatory activity in human neutrophils assessed as inhibition of opsonized zymosan A-mediated superoxide anions production by WST-1 based respiratory burst assay; type: functional, cell-based, Neutrophil
NIH3T3 = experiment: Cytotoxicity against mouse 3T3 cells at 100 uM after 72 hrs by MTT assay; type: cell-based; conditions: nih3t3, 72 h
J774.2 [2] = experiment: Induction of LPS-induced NO production in mouse J774.2 cells at 60 uM after 48 hrs by spectrophotometry; type: functional
THP-1 [3] = experiment: Induction of LPS-B-induced TNF-alpha production in human THP1 cells at 60 uM after 4 hrs; type: functional
J774.2 [4] = experiment: Antiinflammatory activity in mouse J774.2 cells assessed as inhibition of LPS-induced NO production at 60 uM after 48 hrs by spectrophotometry; type: functional; conditions: J774.2, 48 h
THP-1 [5] = experiment: Antiinflammatory activity in human THP1 cells assessed as inhibition of LPS-B-induced TNF-alpha production at 60 uM after 4 hrs; type: functional; conditions: THP-1, 4 h
[6] = Homo sapiens, Neutrophil, read-out: IC50

COc1c(OC(C)C)cc2c(c1OC(C)C)[C@@H]1O[C@H](CO)[C@@H](O)[C@H](O)[C@H]1OC2=O
IC50 [1, 6]: 303 µM | Activity (NIH3T3): Non-toxic | Activity (J774.2 [2]): 5.5% | Activity (THP-1 [3]): 8.44%

C=CCCOc1cc2c(c(OCCC=C)c1OC)[C@@H]1O[C@H](CO)[C@@H](O)[C@H](O)[C@H]1OC2=O
IC50 [1, 6]: 288 µM | Activity (NIH3T3): Non-toxic | inhibition at 60 µM (J774.2 [4]): 3.6% | Activity (THP-1 [3]): 13.27%

CCCCCOc1cc2c(c(OCCCCC)c1OC)[C@@H]1O[C@H](CO)[C@@H](O)[C@H](O)[C@H]1OC2=O
IC50 [1, 6]: 296 µM | Activity (NIH3T3): Non-toxic | inhibition at 60 µM (J774.2 [4]): 3.4% | inhibition at 60 µM (THP-1 [5]): 20.9%

CCOc1cc2c(c(OCC)c1OC)[C@@H]1O[C@H](CO)[C@@H](O)[C@H](O)[C@H]1OC2=O
IC50 [1, 6]: 322 µM | Activity (NIH3T3): Non-toxic | inhibition at 60 µM (J774.2 [4]): 54.5% | inhibition at 60 µM (THP-1 [5]): 98.6%

COc1cc2c(c(OC)c1OC)[C@@H]1O[C@H](CO)[C@@H](O)[C@H](O)[C@H]1OC2=O
IC50 ([1]; neutrophil): Not Active | Activity (NIH3T3): Non-toxic | inhibition at 60 µM (J774.2 [4]): 47.6% | inhibition at 60 µM (THP-1 [5]): 0.44%

C#CCOc1cc2c(c(OCC#C)c1OC)[C@@H]1O[C@H](CO)[C@@H](O)[C@H](O)[C@H]1OC2=O
IC50 [1, 6]: 382 µM | Activity (NIH3T3): Non-toxic | inhibition at 60 µM (J774.2 [4]): 19.4% | Activity (THP-1 [3]): 27.56%

CCCCCCCOc1cc2c(c(OCCCCCCC)c1OC)[C@@H]1O[C@H](CO)[C@@H](O)[C@H](O)[C@H]1OC2=O
IC50 [1, 6]: 213 µM | Activity (NIH3T3): Non-toxic | inhibition at 60 µM (J774.2 [4]): 18% | inhibition at 60 µM (THP-1 [5]): 28.7%

C=CCCCCOc1cc2c(c(OCCCCC=C)c1OC)[C@@H]1O[C@H](CO)[C@@H](O)[C@H](O)[C@H]1OC2=O
IC50 [1, 6]: 270 µM | Activity (NIH3T3): Non-toxic | inhibition at 60 µM (J774.2 [4]): 9.4% | inhibition at 60 µM (THP-1 [5]): 17.7%

C=CCOc1cc2c(c(OCC=C)c1OC)[C@@H]1O[C@H](CO)[C@@H](O)[C@H](O)[C@H]1OC2=O
IC50 [1, 6]: 333 µM | Activity (NIH3T3): Non-toxic | inhibition at 60 µM (J774.2 [4]): 5.5% | Activity (THP-1 [3]): 18.41%

COc1c(OCC#N)cc2c(c1OCC#N)[C@@H]1O[C@H](CO)[C@@H](O)[C@H](O)[C@H]1OC2=O
IC50 [1, 6]: 416 µM | Activity (NIH3T3): Non-toxic | inhibition at 60 µM (J774.2 [4]): 13.3% | Activity (THP-1 [3]): 26.21%

CCCCOc1cc2c(c(OCCCC)c1OC)[C@@H]1O[C@H](CO)[C@@H](O)[C@H](O)[C@H]1OC2=O
IC50 [1, 6]: 403 µM | Activity (NIH3T3): Non-toxic | inhibition at 60 µM (J774.2 [4]): 31.2% | inhibition at 60 µM (THP-1 [5]): 26.3%

COc1c(OCC(=O)OC(C)(C)C)cc2c(c1OCC(=O)OC(C)(C)C)[C@@H]1O[C@H](CO)[C@@H](O)[C@H](O)[C@H]1OC2=O
IC50 [1, 6]: 482 µM | Activity (NIH3T3): Non-toxic | inhibition at 60 µM (J774.2 [4]): 16.3% | inhibition at 60 µM (THP-1 [5]): 9.6%

CCCCCCCCOc1cc2c(c(OCCCCCCCC)c1OC)[C@@H]1O[C@H](CO)[C@@H](O)[C@H](O)[C@H]1OC2=O
IC50 [1, 6]: 222 µM | Activity (NIH3T3): Non-toxic | inhibition at 60 µM (J774.2 [4]): 18% | Activity (THP-1 [3]): 3.4%

CCCOc1cc2c(c(OCCC)c1OC)[C@@H]1O[C@H](CO)[C@@H](O)[C@H](O)[C@H]1OC2=O
IC50 ([1]; neutrophil): Not Active | Activity (NIH3T3): Non-toxic | inhibition at 60 µM (J774.2 [4]): 8.9% | Activity (THP-1 [3]): 5.57%

CCOC(=O)COc1cc2c(c(OCC(=O)OCC)c1OC)[C@@H]1O[C@H](CO)[C@@H](O)[C@H](O)[C@H]1OC2=O
IC50 [1, 6]: 253 µM | Activity (NIH3T3): Non-toxic | inhibition at 60 µM (J774.2 [4]): 86.8% | inhibition at 60 µM (THP-1 [5]): 96.2%

COc1c(O)cc2c(c1O)[C@@H]1O[C@H](CO)[C@@H](O)[C@H](O)[C@H]1OC2=O [BERGENIN]
IC50 [1, 6]: 303 µM | Activity (NIH3T3): Non-toxic | inhibition at 60 µM (J774.2 [4]): 4.3% | Activity (THP-1 [3]): 7.91%

COc1ccc2c(c1)c(CC(=O)O)c(C)n2C(=O)c1ccc(Cl)cc1 [INDOMETHACIN]
IC50 [1, 6]: 271 µM

CNC(=N)NCCC[C@H](N)C(=O)O [TILARGININE ACETATE]
inhibition at 60 µM (J774.2 [4]): 40%

From ChEMBL document CHEMBL2016563, “Synthesis of new bergenin derivatives as potent inhibitors of inflammatory mediators NO and TNF-α” (Bioorg Med Chem Lett, 2012)
